Assay results published in patent publication US6562856B1, “Pyrazolyl benzyl ether deriviatives having a fluoromethoxy group and the use thereof as pesticides” (Bayer Aktiengesellschaft, priority 1999, dated 2003).

Columns and labels:
Plasmopara viticola = test: Plasmopara Test (Grapevine)/protective; format: in vivo; conditions: protective, application rate 100 g/ha, evaluation 6 days after inoculation
Experimental: Plasmopara Test (Grapevine)/protective
To test for protective activity, young plants are sprayed with the preparation of active compound at the stated application rate. After the spray coating has dried on, the plants are inoculated with an aqueous spore suspension of Plasmopara viticola and then remain in an incubation cabinet at about 20° C. and 100% relative atmospheric humidity for 1 day. The plants are then placed in a greenhouse at about 21° C. and about 90% relative atmospheric humidity for 5 days. The plants are then moistened and placed in an incubation cabin for 1 day.
Evaluation is carried out 6 days after the inoculation. 0% means an efficacy which corresponds to that of the control, whereas an efficacy of 100% means that no infection is observed.

[1] = test system: greenhouse red spider mite (Tetranychus urticae); test: Tetranychus Test (OP-resistant/dip Treatment); conditions: bean plants dipped, OP-resistant, concentration of active compound 100 ppm
Experimental: Emulsifier: 1 part by weight of alkylaryl polyglycol ether
After the desired period of time, the kill in % is determined. 100% means that all spider mites have been killed; 0% means that none of the spider mites have been killed.

[2] = test system: larvae of the mustard beetle (Phaedon cochleariae); test: Phaedon Larvae Test; format: in vivo; conditions: cabbage leaves dipped, concentration of active compound 1000 ppm
Text: (§1) Solvent: 30 parts by weight of acetone

Podosphaera leucotricha = test: Podosphaera Test (Apple)/protective; format: in vivo; conditions: protective, application rate 100 g/ha, evaluation 10 days after inoculation
Experimental: Podosphaera Test (Apple)/protective
(§2) To test for protective activity, young plants are sprayed with the preparation of active compound at the stated application rate. After the spray coating has dried on, the plants are inoculated with an aqueous spore suspension of the apple mildew pathogen Podosphaera leucotricha. The plants are then placed in a greenhouse at about 23° C. and a relative atmospheric humidity of about 70%.
(§3) Evaluation is carried out 10 days after the inoculation. 0% means an efficacy which corresponds to that of the control, whereas an efficacy of 100% means that no infection is observed.

Leptosphaeria nodorum = Leptosphaeria nodorum Test (Wheat)/protective; format: in vivo; conditions: protective, application rate 750 g/ha, evaluation 12-14 days after inoculation
Experimental: Leptosphaeria nodorum Test (Wheat)/protective
To test for protective activity, young wheat plants are sprayed with the preparation of active compound at the stated application rate. 1 day after the treatment, the plants are inoculated with an aqueous spore suspension of Leptosphaeria nodorum and then remain at 100% rel. atmospheric humidity and 20° C. for 48 h. The plants are then placed in a greenhouse at 80% rel. atmospheric humidity and a temperature of 22° C.
Evaluation is carried out 12-14 days after the inoculation. 0% means an efficacy which corresponds to that of the control, whereas an efficacy of 100% means that no infection is observed.

[3] = test system: caterpillars of the armyworm (Spodoptera frugiperda); test: Spodoptera frugiperda Test; format: in vivo; conditions: cabbage leaves dipped, concentration of active compound 1000 ppm
Text: Spodoptera frugiperda Test
as §1

Pyricularia oryzae = format: in vivo; conditions: rice, protective, application rate 125 g/ha, evaluation 7 days after inoculation
[4] = test system: green peach aphid (Myzus persicae); test: Myzus test; format: in vivo; conditions: broad bean seedlings dipped, concentration of active compound 1000 ppm
Text: as §1

Sphaerotheca fuliginea = test: Sphaerotheca Test (Cucumber)/protective; format: in vivo; conditions: protective, application rate 100 g/ha, evaluation 10 days after inoculation
Experimental: Sphaerotheca Test (Cucumber)/protective
as §2, with “Sphaerotheca fuliginea.” for “the apple mildew pathogen Podosphaera leucotricha.”
as §3

Alternaria solani = test: Alternaria Test (Tomato)/protective; format: in vivo; conditions: protective, application rate 750 g/ha, evaluation 7 days after inoculation
Experimental: Alternaria Test (Tomato)/protective
To test for protective activity, young tomato plants are sprayed with the preparation of active compound at the stated application rate. 1 day after the treatment, the plants are inoculated with a spore suspension of Alternaria solani and then remain at 100% rel. humidity and 20° C. for 24 h. The plants then remain at 96% rel. atmospheric humidity and a temperature of 20° C.
Evaluation is carried out 7 days after the inoculation. 0% means an efficacy which corresponds to that of the control, whereas an efficacy of 100% means that no infection is observed.

SMILES: COC(=O)C(=COCF)c1ccccc1COc1ccn(-c2ccc(Cl)cc2)n1 [Example 1, methyl 2-[2-({[1-(4-chlorophenyl)-1H-pyrazol-3-yl]oxy}methyl)phenyl]-3-(fluoromethoxy)-2-acrylate]
- efficacy (Plasmopara viticola): ≥ 98%
- kill rate [1]: 90%
- kill rate [2]: 100%
- efficacy (Podosphaera leucotricha): ≥ 98%
- efficacy (Leptosphaeria nodorum): ≥ 98%
- kill rate [3]: 100%
- chromatographic logP: 3.91
- efficacy (Pyricularia oryzae): ≥ 80%
- kill rate [4]: 100%
- efficacy (Sphaerotheca fuliginea): ≥ 98%
- efficacy (Alternaria solani): ≥ 80%
